Patent US11415571B2, “Large scale organoid analysis” (Tempus Labs, Inc., priority 2019, dated 2022)

Legend:
Test in all cases: caspase 3/7 apoptosis assay, olaparib dilution series on tumor organoids
Assay type in all cases: cell-based, human
Conditions in all cases: tumor without BRCA1 or BRCA2 mutation
[1] = system: tumor organoid culture line 10423-12001
Method: (§1) Tumor biopsies were collected from four individuals: UK1393, 10423-12001, 10524-12001, and 10941-12002. The tumors were genotyped and determined not carry BRCA1 or BRCA2 mutations. As such, according to conventional guidance, the tumors are not indicated for first-line therapy with a PARP inhibitor. In order to test whether these tumors may still be sensitive to PARP inhibitors, despite not carrying a BRCA1 or BRCA2 mutation, tumor organoids were cultured using cells from the biopsied material.
(§2) Briefly, cells within each of the biopsied tumor samples were dissociated and cultured to establish a tumor organoid culture line from the tumor of each individual. Single tumor organoids from the tumor organoid culture lines were collected and plated, individually, into wells of a multiwell plate with culture medium. A series of six concentrations of olaparib, in a 5-fold serial dilution, were established for the tumor organoids derived from each individual, as well as negative controls. After incubation with olaparib, a caspase 3/7 apoptosis assay was performed in each well, to determine the sensitivity of each tumor organoid to the respective concentration of olaparib. Results of the […] dilution series experiments are plotted in FIG. 3.

[2] = system: tumor organoid culture line 10524-12001
Method: as §1, §2

[3] = system: tumor organoid culture line 10941-12002
Method: as §1, §2

[4] = system: tumor organoid culture line UK1393
Method: as §1, §2

O=C(c1cc(Cc2n[nH]c(=O)c3ccccc23)ccc1F)N1CCN(C(=O)C2CC2)CC1 [Olaparib]
sensitivity to olaparib [1]: fairly insensitive | sensitivity to olaparib [2]: fairly insensitive | sensitivity to olaparib [3]: fairly insensitive | sensitivity to olaparib compared with the other tumor organoid culture lines [4]: more than 100 fold
